# From DBAASP
# Experiments:
# Test in all cases: ≥ marks a high value that may be exact or a test limit, other limits are often not marked, values filed in µg/mL are converted to µM
# Micrococcus luteus = tested on: Micrococcus luteus
# Escherichia coli = tested on: Escherichia coli
# Listeria innocua = tested on: Listeria innocua
# Bacillus cereus = tested on: Bacillus cereus
# Leuconostoc lactis = tested on: Leuconostoc lactis
# Pasteurella multocida = tested on: Pasteurella multocida
# Staphylococcus aureus = tested on: Staphylococcus aureus
# [1] = tested on: Staphylococcus epidermidis
# Streptococcus uberis = tested on: Streptococcus uberis
# [2] = tested on: Pseudomonas aeruginosa ATCC 27853
# [3] = tested on: Shigella dysenteriae ATCC 9752
# [4] = tested on: Salmonella enterica subsp. enterica serovar Typhimurium ATCC 14028
# [5] = tested on: Staphylococcus aureus TK784
# [6] = tested on: Escherichia coli ATCC 25922
# [7] = tested on: Bacillus subtilis ATCC 6633
# [8] = tested on: Staphylococcus epidermidis ATCC 12228
# [9] = tested on: Klebsiella pneumoniae ATCC 10031
# [10] = tested on: Micrococcus luteus ATCC 10240
# [11] = tested on: Staphylococcus aureus ATCC 6538P
# Acinetobacter baumannii = tested on: Acinetobacter baumannii
# Pseudomonas aeruginosa = tested on: Pseudomonas aeruginosa
# [12] = tested on: Salmonella enterica subsp. enterica serovar Typhimurium C77-31
# [13] = tested on: Staphylococcus aureus ATCC 25923
# Escherichia coli UB1005 = tested on: Escherichia coli UB1005
# [14] = tested on: Staphylococcus aureus ATCC 29213
# [15] = tested on: Staphylococcus aureus ATCC 6538
# [16] = tested on: Micrococcus luteus ATCC 4698
# [17] = tested on: Escherichia coli DH5alpha
# [18] = tested on: Candida albicans F7-39/IDE99
# Escherichia coli B = tested on: Escherichia coli B
# Bacillus subtilis 168 = tested on: Bacillus subtilis 168
smiles,measurement,setting,value
CC[C@H](C)[C@H](NC(=O)[C@@H](NC(=O)CN)C(C)C)C(=O)N[C@@H](CC(=O)O)C(=O)N[C@@H](C)C(=O)N[C@@H](C)C(=O)N[C@@H](CCCCN)C(=O)N[C@@H](CCCCN)C(=O)N[C@H](C(=O)N[C@H](C(=O)N[C@@H](CC(N)=O)C(=O)N[C@H](C(=O)N[C@@H](CC(C)C)C(=O)N[C@@H](C)C(=O)N[C@@H](CC(N)=O)C(=O)N[C@@H](CC(C)C)C(=O)N[C@@H](Cc1ccccc1)C(N)=O)C(C)C)C(C)C)C(C)C [GVIDAAKKVVNVLANLF],MIC,Micrococcus luteus,≥ 56.5 µM
same,MIC,Escherichia coli,> 56.5 µM
same,MIC,Listeria innocua,≥ 56.5 µM
same,MIC,Bacillus cereus,≥ 56.5 µM
same,MIC,Leuconostoc lactis,6.78 µM
same,MIC,Pasteurella multocida,≥ 56.5 µM
same,MIC,Staphylococcus aureus,> 56.5 µM
same,MIC,[1],≥ 56.5 µM
same,MIC,Streptococcus uberis,28.2 µM
CC(C)C[C@H](NC(=O)[C@H](CC(C)C)NC(=O)[C@@H](N)Cc1c[nH]c2ccccc12)C(=O)N[C@@H](CCCCN)C(=O)N[C@@H](Cc1c[nH]c2ccccc12)C(N)=O [WLLKW],MIC,[2],> 107 µM
same,MIC,[3],≥ 107 µM
same,MIC,[4],> 107 µM
same,MIC,[5],≥ 107 µM
same,MIC,[6],> 107 µM
same,MIC,[7],≥ 107 µM
same,MIC,[8],> 107 µM
same,MIC,[9],≥ 107 µM
same,MIC,[10],≥ 107 µM
same,MIC,[11],≥ 107 µM
CC(C)C[C@H](NC(=O)[C@H](CCCN=C(N)N)NC(=O)[C@H](Cc1c[nH]c2ccccc12)NC(=O)[C@H](CCCN=C(N)N)NC(=O)[C@@H](NC(=O)[C@H](CCCCN)NC(=O)[C@H](Cc1c[nH]c2ccccc12)NC(=O)[C@H](CCCN=C(N)N)NC(=O)[C@H](CC(C)C)NC(=O)[C@H](CCCN=C(N)N)NC(=O)[C@@H](N)Cc1c[nH]c2ccccc12)[C@@H](C)O)C(=O)N[C@@H](CCCCN)C(N)=O [WRLRWKTRWRLK],MIC,Escherichia coli,2.83 µM
same,MIC,Acinetobacter baumannii,4 µM
same,MIC,Pseudomonas aeruginosa,8 µM
same,MIC,[12],2 µM
same,MIC,[13],2 µM
same,MIC,Escherichia coli UB1005,2 µM
same,MIC,Staphylococcus aureus,2 µM
same,MIC,[8],4 µM
CC(C)C[C@H](NC(=O)[C@H](CCCCN)NC(=O)[C@H](Cc1c[nH]c2ccccc12)NC(=O)[C@H](CCCCN)NC(=O)[C@H](CC(C)C)NC(=O)[C@H](CCCCN)NC(=O)[C@H](Cc1c[nH]c2ccccc12)NC(=O)[C@H](CCCCN)NC(=O)[C@H](CC(C)C)NC(=O)[C@H](CCCCN)NC(=O)[C@@H](N)Cc1c[nH]c2ccccc12)C(=O)N[C@@H](CCCCN)C(N)=O [WKLKWKLKWKLK],MIC,[14],2 µM
same,MIC,Escherichia coli,2 µM
same,MIC,Acinetobacter baumannii,2.83 µM
same,MIC,Pseudomonas aeruginosa,4 µM
same,MIC,[12],2 µM
same,MIC,[6],4 µM
same,MIC,[13],2 µM
same,MIC,Escherichia coli UB1005,4 µM
same,MIC,Staphylococcus aureus,2 µM
same,MIC,[8],2 µM
CC(C)C[C@H](NC(=O)[C@H](CCCN=C(N)N)NC(=O)[C@H](Cc1c[nH]c2ccccc12)NC(=O)[C@H](CCCN=C(N)N)NC(=O)[C@H](CC(C)C)NC(=O)[C@H](CCCN=C(N)N)NC(=O)[C@H](Cc1c[nH]c2ccccc12)NC(=O)[C@H](CCCN=C(N)N)NC(=O)[C@H](CC(C)C)NC(=O)[C@H](CCCN=C(N)N)NC(=O)[C@@H](N)Cc1c[nH]c2ccccc12)C(=O)N[C@@H](CCCN=C(N)N)C(N)=O [WRLRWRLRWRLR],MIC,[14],1 µM
same,MIC,Escherichia coli,2 µM
same,MIC,Acinetobacter baumannii,2.83 µM
same,MIC,Pseudomonas aeruginosa,4 µM
same,MIC,[12],2 µM
same,MIC,[6],4 µM
same,MIC,[13],2 µM
same,MIC,Escherichia coli UB1005,2 µM
same,MIC,Staphylococcus aureus,1 µM
same,MIC,[8],2 µM
CC(C)C[C@H](NC(=O)[C@H](CC(C)C)NC(=O)[C@H](CCCCN)NC(=O)[C@H](CCCCN)NC(=O)[C@H](CC(C)C)NC(=O)[C@H](Cc1c[nH]c2ccccc12)NC(=O)[C@H](CCCCN)NC(=O)[C@H](CC(C)C)NC(=O)[C@H](CC(C)C)NC(=O)[C@@H](N)CCCCN)C(=O)N[C@@H](CCCCN)C(N)=O [KLLKWLKKLLK],MIC,[2],5.67 µM
same,MIC,[3],1.42 µM
same,MIC,[4],1.42 µM
same,MIC,[5],5.67 µM
same,MIC,[6],1.42 µM
same,MIC,[7],1.42 µM
same,MIC,[8],1.42 µM
same,MIC,[9],1.42 µM
same,MIC,[10],1.42 µM
same,MIC,[11],1.42 µM
CC[C@H](C)[C@H](NC(=O)[C@@H](NC(=O)[C@H](C)NC(=O)[C@@H](NC(=O)[C@@H](NC(=O)[C@H](Cc1cnc[nH]1)NC(=O)[C@H](C)NC(=O)[C@H](CC(C)C)NC(=O)[C@@H](NC(=O)[C@H](Cc1cnc[nH]1)NC(=O)[C@H](CCCCN)NC(=O)[C@H](C)NC(=O)[C@@H](NC(=O)[C@H](CO)NC(=O)CNC(=O)[C@H](CC(C)C)NC(=O)[C@@H](NC(=O)[C@H](CO)NC(=O)[C@H](CC(C)C)NC(=O)[C@H](CC(C)C)NC(=O)CN)C(C)C)C(C)C)C(C)C)C(C)C)C(C)C)C(C)C)C(=O)N[C@@H](C)C(=O)N[C@@H](CCC(=O)O)C(=O)N[C@@H](Cc1cnc[nH]1)C(=O)N[C@@H](CC(C)C)C(N)=O [GLLSVLGSVAKHVLAHVVAVIAEHL],MIC,Micrococcus luteus,≥ 39.5 µM
same,MIC,Escherichia coli,> 39.5 µM
same,MIC,Listeria innocua,≥ 39.5 µM
same,MIC,Bacillus cereus,≥ 39.5 µM
same,MIC,Leuconostoc lactis,9.87 µM
same,MIC,Pasteurella multocida,≥ 39.5 µM
same,MIC,Staphylococcus aureus,> 39.5 µM
same,MIC,[1],≥ 39.5 µM
same,MIC,Streptococcus uberis,≥ 39.5 µM
CC[C@H](C)[C@H](NC(=O)[C@@H](NC(=O)[C@H](CCCCN)NC(=O)[C@H](C)NC(=O)[C@@H](NC(=O)[C@H](CCCCN)NC(=O)[C@H](CCCCN)NC(=O)[C@@H](NC(=O)[C@@H](NC(=O)[C@H](CCCCN)NC(=O)[C@H](Cc1ccccc1)NC(=O)[C@H](CC(C)C)NC(=O)CN)C(C)C)[C@@H](C)CC)C(C)C)C(C)C)C(=O)N[C@@H](CCCCN)C(=O)N[C@@H](CCCCN)C(=O)N[C@@H](CC(C)C)C(N)=O [GLFKVIKKVAKVIKKL],MIC,Micrococcus luteus,13.8 µM
same,MIC,Escherichia coli,55.2 µM
same,MIC,Listeria innocua,13.8 µM
same,MIC,Bacillus cereus,27.6 µM
same,MIC,Leuconostoc lactis,3.31 µM
same,MIC,Pasteurella multocida,≥ 55.2 µM
same,MIC,Staphylococcus aureus,27.6 µM
same,MIC,[1],6.62 µM
same,MIC,Streptococcus uberis,27.6 µM
CC(C)C[C@H](NC(=O)[C@H](CC(C)C)NC(=O)[C@H](CCCCN)NC(=O)[C@H](CO)NC(=O)[C@H](CC(C)C)NC(=O)[C@H](C)NC(=O)[C@H](CCCCN)NC(=O)[C@H](Cc1ccccc1)NC(=O)[C@H](CC(C)C)NC(=O)[C@H](C)NC(=O)CNC(=O)[C@@H](NC(=O)[C@@H](N)Cc1ccccc1)C(C)C)C(=O)O [FVGALFKALSKLL],MIC,[15],8.53 µM
same,MIC,[16],4.27 µM
same,MIC,[17],≥ 35.5 µM
same,MIC,[8],15.6 µM
CC(C)C[C@H](NC(=O)[C@H](C)NC(=O)CNC(=O)[C@H](CC(C)C)NC(=O)[C@@H](N)Cc1ccccc1)C(=O)N[C@@H](Cc1ccccc1)C(=O)N[C@@H](CCCCN)C(=O)N[C@@H](C)C(=O)N[C@@H](CC(C)C)C(=O)N[C@@H](CO)C(=O)N[C@@H](CCCCN)C(=O)N[C@@H](CC(C)C)C(=O)N[C@H](C(=O)O)C(C)C [FLGALFKALSKLV],MIC,[15],7.82 µM
same,MIC,[16],4.27 µM
same,MIC,[17],≥ 35.5 µM
same,MIC,[8],12.8 µM
CC(C)C[C@H](NC(=O)[C@@H](NC(=O)[C@H](CCCCN)NC(=O)[C@H](CCCCN)NC(=O)[C@H](CC(C)C)NC(=O)[C@H](CC(C)C)NC(=O)[C@H](CCCCN)NC(=O)[C@H](CC(C)C)NC(=O)[C@H](C)NC(=O)[C@H](CCCCN)NC(=O)CNC(=O)[C@H](Cc1ccccc1)NC(=O)CN)C(C)C)C(N)=O [GFGKALKLLKKVL],MIC,Pseudomonas aeruginosa,10 µM
same,MIC,[18],5 µM
same,MIC,Escherichia coli B,2.5 µM
same,MIC,Bacillus subtilis 168,1.8 µM
same,MIC,Staphylococcus aureus,10 µM
